The target in assay [1] is T1, mouse complex I (Mus musculus, UniProt P03888+Q91WD5+Q9DC70).
T1 construct: from tissue; host or cells: mouse (C57BL/6) heart mitochondria
Nature of the assay: Extent of inhibition of isolated IACS-2858-bound mouse complex I prepared for cryo-EM. The conditions noted are these: isolated inhibitor-bound enzyme after size exclusion, initial rate versus control without inhibitor; cryo-EM sample. The assay is classed as biochemical. As for the experimental part:
Complex I inhibited by IACS-2858 was prepared by a method adapted from that of Bridges et al. ([23]) for preparing mouse complex I inhibited by piericidin A1. C57BL/6 mice were euthanized by cervical dislocation in accord with the UK Animals (Scientific Procedures) Act 1986 (PPL: P6C97520A, approved by the local ethics committee and the UK Home Office), and mitochondrial membranes were prepared from heart tissue as described previously ([20]). Starting from membranes containing ~40 mg of total protein, the proteins were solubilized from the membranes by addition of 1% DDM (Glycon), and the mixture was centrifuged. […] The level of inhibition achieved was determined by comparing the initial rates of catalysis by the control and inhibited samples in buffer containing 20 mM tris-HCl (pH 7.5 at 32°C), 0.15% soy bean asolectin (Avanti Polar Lipids), and 0.15% CHAPS (Merck Chemicals Ltd.), using 200 μM dQ, with catalysis initiated by 200 μM NADH and monitored at 340 to 380 nm (ε = 4.81 mM^−1 cm^−1). […] The concentration of the peak fraction for the inhibited protein, eluting at ~1.65 ml, was estimated using a NanoDrop ultraviolet-visible spectrophotometer [ε280 = 0.2 (mg ml^−1)^−1], and the level of inhibition of the final eluted IACS-2858–treated sample was determined as above. […]

Assay [2] addresses T2, bovine complex I (Bos taurus, UniProt P03887+P17694+P42026).
T2 construct: Complex I from bovine heart were prepared; from tissue; host or cells: bovine heart mitochondria
Nature of the assay: Inhibition kinetics in bovine complex I proteoliposomes with ubiquinone-10 and AOX. It counts as biochemical. The conditions noted are these: versus ubiquinone-10, reciprocal plots and kinetic modelling. The procedure:
Complex I from bovine heart were prepared and used to make proteoliposomes as described previously ([17], [23], [58]). Briefly, liposomes were formed from 8 mg of phosphatidylcholine, 1 mg of phosphatidylethanolamine, and 1 mg of cardiolipin (bovine heart extracts from Avanti Polar Lipids), together with varying amounts of ubiquinone-10 (Sigma-Aldrich), in ~800 μl of 10 mM 3-morpholinopropane-1-sulfonic acid (Mops)-KOH (pH 7.5) and 50 mM KCl. Following extrusion through a 100 nm of Nuclepore polycarbonate membrane (Whatman), the liposomes were partially solubilized with 0.5% sodium cholate (Anatrace), and 0.2 mg of complex I was added for reconstitution. […] Complex I concentration and orientation were quantified using the NADH:APAD^+ activity assay as described previously ([17], [23], [58]). Phospholipid phase volumes were calculated as described previously ([17], [23], [58]) to determine the amount of phospholipid present and by assuming that 1 mg of phospholipid occupies ∼1 μl. Ubiquinone-10 contents were quantified by HPLC, by reference to a set of standard samples, using a Nucleosil 100-5C18 column and a Dionex Ultimate 3000 RS electrochemical detector as described previously ([17], [23], [58]). […] All catalytic activity assays were conducted at 32°C in 96-well plates using a Molecular Devices Spectramax 384 plus plate reader. […]

Where “and” joins values, the source holds several entries; their conditions need not be identical. Identical values can stand only once.

Turning to `CS(=O)(=O)C1CCN(c2cccc(Cn3cc(-c4nc(-c5ccc(OC(F)(F)F)cc5)no4)ccc3=O)c2)CC1` [IACS-2858, 1-(3-(4-(Methylsulfonyl)piperidin-1-yl)benzyl)-5-(3-(4-(trifluoromethoxy)phenyl)-1,2,4-oxadiazol-5-yl)pyridin-2(1H)-one], in assay [1], the extent of inhibition was 81 ± 5% and 81.3 ± 4.7%. In assay [2], the mode of inhibition entry is on record as “competitive”.

(Values after article PMC8121435, “Cork-in-bottle mechanism of inhibitor binding to mammalian complex I” (Science Advances, 2021).)
